Molecules are shown by their SMILES. A value given as a limit tells only on which side of the number the result lay.

The test system of one assay is UWB1.289 cells. The experiment in a line: Cell proliferation inhibitory activity in BRCA1/2-mutant or HRD-positive cells (Cell Titer-Glo). It counts as cell-based. The following applies: UWB1289; UWB1.289 cells, 144 hours after compound treatment, Cell Titer-Glo, 1.5 nM to 10 µM; read-out: GI50 UWB1.289 BRCA1 mut. In short, it runs like this: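 UWB1.289 cells (1,000/well) in 50% MEBM/50% RPMI1640 exposed to […], final 1.5 nM to 10 µM, for 144 h at 37 °C. Viable cells measured by CellTiter-Glo luminescence; GI50 calculated.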

A further assay concerns the target T1, recombinant USP1 protein (Homo sapiens, UniProt O94782, DEL125-138/DEL229-408/DEL608-737).
T1 sequence (O94782 with tags, fused parts or gaps DEL125-138/DEL229-408/DEL608-737): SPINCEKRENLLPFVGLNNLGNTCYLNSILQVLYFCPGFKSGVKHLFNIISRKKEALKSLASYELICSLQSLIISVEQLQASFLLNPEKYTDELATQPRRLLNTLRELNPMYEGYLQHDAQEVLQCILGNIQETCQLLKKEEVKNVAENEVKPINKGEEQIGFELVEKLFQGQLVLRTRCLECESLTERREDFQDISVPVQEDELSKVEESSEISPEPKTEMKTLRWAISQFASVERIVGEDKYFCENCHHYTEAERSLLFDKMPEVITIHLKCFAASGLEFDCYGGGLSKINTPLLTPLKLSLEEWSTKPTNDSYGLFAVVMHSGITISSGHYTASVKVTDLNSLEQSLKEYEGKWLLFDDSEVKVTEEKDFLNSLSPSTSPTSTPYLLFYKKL
The experiment in a line: Binding affinity to recombinant USP1 protein by differential scanning fluorimetry. The settings on record: compound 100 µM; 0.03 mg/mL USP1 (Δ1-66, Δ125-138, Δ229-408, Δ608-737); Tm with compound minus Tm with DMSO; read-out: ΔTm (°C). Summed up:
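USP1 (Δ1-66, Δ125-138, Δ229-408, Δ608-737) at 0.03 mg/mL with dye in 50 mM Tris-HCl pH 8.0, 150 mM NaCl, 2% glycerol, 1 mM DTT; compounds at 100 µM final. Tm read on real-time PCR instrument; ΔTm = Tm with compound minus Tm with DMSO.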
In general terms: In DSF a fluorescence change marks the thermal transition of the protein.

In the case of `COc1ncnc(C2CC2)c1-c1ncc2cc(C(=O)NCCO)n(Cc3ccc(-c4nc(C(F)(F)F)cn4C(C)C)cc3)c2n1` [Example 157, 2-(4-cyclopropyl-6-methoxypyrimidin-5-yl)-N-(2-hydroxyethyl)-7-(4-(1-isopropyl-4-(trifluoromethyl)-1H-imidazol-2-yl)benzyl)-7H-pyrrolo[2,3-d]pyrimidine-6-carboxamide], in the assay on UWB1.289 cells, the GI50 (in general, the concentration that inhibits growth by half) is < 100 nM. Moreover, the ΔTm (in general, the change in melting temperature against a reference sample) at 100 µM at recombinant USP1 protein was > 5 °C.

For the compound `COc1ncnc(C2CC2)c1-c1ncc2cc(C(=O)NC3CCC(N(C)C)CC3)n(Cc3ccc(-c4nc(C(F)(F)F)cn4C(C)C)cc3)c2n1` (stereo not drawn) [Example 158, 2-(4-cyclopropyl-6-methoxypyrimidin-5-yl)-N-(4-(dimethylamino)cyclohexyl)-7-(4-(1-isopropyl-4-(trifluoromethyl)-1H-imidazol-2-yl)benzyl)-7H-pyrrolo[2,3-d]pyrimidine-6-carboxamide], the GI50 with UWB1.289 cells is < 100 nM. The ΔTm at 100 µM on recombinant USP1 protein was > 5 °C.

With `COc1ncnc(C2CC2)c1-c1ncc2cc(C(=O)N[C@@H]3CCN(C)C[C@@H]3F)n(Cc3ccc(-c4nc(C(F)(F)F)cn4C)cc3)c2n1` [Example 161, 2-(4-cyclopropyl-6-methoxypyrimidin-5-yl)-N-((3S,4R)-3-fluoro-1-methylpiperidin-4-yl)-7-(4-(1-methyl-4-(trifluoromethyl)-1H-imidazol-2-yl)benzyl)-7H-pyrrolo[2,3-d]pyrimidine-6-carboxamide], in the assay with UWB1.289 cells, the GI50 is < 100 nM. Besides, the ΔTm at 100 µM on recombinant USP1 protein was > 5 °C.

On to `COc1ncnc(C2CC2)c1-c1ncc2cc(C(=O)N[C@H]3CCN(C)C[C@H]3F)n(Cc3ccc(-c4nc(C(F)(F)F)cn4C)cc3)c2n1` [Example 162, 2-(4-cyclopropyl-6-methoxypyrimidin-5-yl)-N-((3R, 4S) -3-fluoro-1-methylpiperidin-4-yl)-7-(4-(1-methyl-4-(trifluoromethyl)-1H-imidazol-2-yl)benzyl)-7H-pyrrolo[2,3-d]pyrimidine-6-carboxamide], for which the GI50 with UWB1.289 cells was < 100 nM. For the same compound, on recombinant USP1 protein, the ΔTm at 100 µM was > 5 °C.

`COc1ncnc(C2CC2)c1-c1ncc2cc(C(=O)NC[C@@H](C)O)n(Cc3ccc(-c4nc(C(F)(F)F)cn4C)cc3)c2n1` [Example 163, (R)-2-(4-cyclopropyl-6-methoxypyrimidin-5-yl)-N-(2-hydroxypropyl) -7-(4-(1-methyl-4-(trifluoromethyl)-1H-imidazol-2-yl)benzyl)-7H-pyrrolo[2,3-d]pyrimidine-6-carboxamide]: in the assay on UWB1.289 cells, the GI50 is < 100 nM. For the same compound, the ΔTm at 100 µM at recombinant USP1 protein was > 5 °C.

In the case of `COc1ncnc(C2CC2)c1-c1ncc2cc(C(=O)NC[C@H](C)O)n(Cc3ccc(-c4nc(C(F)(F)F)cn4C)cc3)c2n1` [Example 164, (S)-2-(4-cyclopropyl-6-methoxypyrimidin-5-yl)-N-(2-hydroxypropyl) -7-(4-(1-methyl-4-(trifluoromethyl)-1H-imidazol-2-yl)benzyl)-7H-pyrrolo[2,3-d]pyrimidine-6-carboxamide], in the assay with UWB1.289 cells, the GI50 is < 100 nM. The ΔTm at 100 µM at recombinant USP1 protein is > 5 °C.

For `COc1ncnc(C2CC2)c1-c1ncc2cc(C(=O)N[C@@H]3CCN(C)C[C@H]3F)n(Cc3ccc(-c4nc(C(F)(F)F)cn4C)cc3)c2n1` [Example 165, 2-(4-cyclopropyl-6-methoxypyrimidin-5-yl)-N-((3R,4R)-3-fluoro-1-methylpiperidin-4-yl)-7-(4-(1-methyl-4-(trifluoromethyl)-1H-imidazol-2-yl)benzyl)-7H-pyrrolo[2,3-d]pyrimidine-6-carboxamide], the GI50 in the assay with UWB1.289 cells was < 100 nM. Also, at recombinant USP1 protein, the ΔTm at 100 µM was > 5 °C.

As for `COc1ncnc(C2CC2)c1-c1ncc2cc(C(=O)N[C@@H](C)CO)n(Cc3ccc(-c4nc(C(F)(F)F)cn4C)cc3)c2n1` [Example 166, (S)-2-(4-cyclopropyl-6-methoxypyrimidin-5-yl)-N-(1-hydroxypropan-2-yl)-7-(4-(1-methyl-4-(trifluoromethyl)-1H-imidazol-2-yl)benzyl)-7H-pyrrolo[2,3-d]pyrimidine-6-carboxamide], in the assay with UWB1.289 cells, the GI50 was < 100 nM. Further, the ΔTm at 100 µM on recombinant USP1 protein was > 5 °C.

As to `COc1ncnc(C2CC2)c1-c1ncc2cc(C(=O)N[C@H]3CCN(C)C[C@@H]3F)n(Cc3ccc(-c4nc(C(F)(F)F)cn4C)cc3)c2n1` [Example 167, 2-(4-cyclopropyl-6-methoxypyrimidin-5-yl)-N-((3S,4S)-3-fluoro-1-methylpiperidin-4-yl)-7-(4-(1-methyl-4-(trifluoromethyl)-1H-imidazol-2-yl)benzyl)-7H-pyrrolo[2,3-d]pyrimidine-6-carboxamide], the GI50 with UWB1.289 cells was < 100 nM. Further, the ΔTm at 100 µM at recombinant USP1 protein was > 5 °C.

As for `COc1ncnc(C2CC2)c1-c1ncc2cc(C(=O)N[C@@H]3CCC[C@H]3N(C)C)n(Cc3ccc(-c4nc(C(F)(F)F)cn4C)cc3)c2n1` [Example 168, 2-(4-cyclopropyl-6-methoxypyrimidin-5-yl)-N-((1R,2R)-2-(dimethylamino)cyclopentyl)-7-(4-(1-methyl-4-(trifluoromethyl)-1H-imidazol-2-yl)benzyl)-7H-pyrrolo[2,3-d]pyrimidine-6-carboxamide], the GI50 in the assay with UWB1.289 cells was < 100 nM. The ΔTm at 100 µM at recombinant USP1 protein is > 5 °C.

Take `COc1ncnc(C2CC2)c1-c1ncc2cc(C(=O)N[C@@H]3CCN(C)C3)n(Cc3ccc(-c4nc(C(F)(F)F)cn4C)cc3)c2n1` [Example 169, (R) -2-(4-cyclopropyl-6-methoxypyrimidin-5-yl)-7-(4-(1-methyl-4-(trifluoromethyl)-1H-imidazol-2-yl)benzyl)-N-(1-methylpyrrolidin-3-yl)-7H-pyrrolo[2,3-d]pyrimidine-6-carboxamide]: the GI50 with UWB1.289 cells was < 100 nM. The shift in melting temperature (ΔTm) at 100 µM at recombinant USP1 protein is > 5 °C.

In the case of `COc1ncnc(C2CC2)c1-c1ncc2cc(C(=O)N3CCN(C)CC3)n(Cc3ccc(-c4nc(C(F)(F)F)cn4C)cc3)c2n1` [Example 170, (2-(4-cyclopropyl-6-methoxypyrimid in-5-yl)-7-(4-(1-methyl-4-(trifluoromethyl)-1H-imidazol-2-yl)benzyl) -7H-pyrrolo[2,3-d]pyrimidin-6-yl) (4-methylpiperazi n-1-yl)methanone], the GI50 with UWB1.289 cells lay within 100 to 500 nM. At recombinant USP1 protein, the ΔTm at 100 µM is > 5 °C.

Take `COc1ncnc(C2CC2)c1-c1ncc2cc(C(=O)NC3CN(C)C3)n(Cc3ccc(-c4nc(C(F)(F)F)cn4C)cc3)c2n1` [Example 171, 2-(4-cyclopropyl-6-methoxypyrimidin-5-yl)-7-(4-(1-methyl-4-(trifluoromethyl)-1H-imidazol-2-yl)benzyl)-N-(1-methylazetidin-3-yl)-7H-pyrrolo[2,3-d]pyrimidine-6-carboxamide]: the GI50 in the assay on UWB1.289 cells is < 100 nM. Also, the ΔTm at 100 µM on recombinant USP1 protein is > 5 °C.

Regarding `COc1ncnc(C2CC2)c1-c1ncc2cc(C(=O)NC3CCC(N(C)C)CC3)n(Cc3ccc(-c4nc(C(F)(F)F)cn4C)cc3)c2n1` (stereo not drawn) [Example 172], in the assay with UWB1.289 cells, the GI50 is < 100 nM. Besides, on recombinant USP1 protein, the ΔTm at 100 µM was > 5 °C.

In the case of `COc1ncnc(C2CC2)c1-c1ncc2cc(C(=O)N[C@H]3CCN(C)C3)n(Cc3ccc(-c4nc(C(F)(F)F)cn4C)cc3)c2n1` [Example 173, (S)-2-(4-cyclopropyl-6-methoxypyrimidin-5-yl)-7-(4-(1-methyl-4-(trifluoromethyl)-1H-imidazol-2-yl)benzyl)-N-(1-methylpyrrolidin-3-yl)-7H-pyrrolo[2,3-d]pyrimidine-6-carboxamide], in the assay with UWB1.289 cells, the GI50 was < 100 nM. For the same compound, the ΔTm at 100 µM on recombinant USP1 protein was > 5 °C.

In the case of `COc1ncnc(C2CC2)c1-c1ncc2cc(C(=O)N[C@H]3CCN(C)C3)n(Cc3ccc(-c4nc(C(F)(F)F)cn4C(C)C)cc3)c2n1` [Example 174, (S)-2-(4-cyclopropyl-6-methoxypyrimidin-5-yl)-7-(4-(1-isopropyl-4-(trifluoromethyl)-1H-imidazol-2-yl)benzyl)-N-(1-methylpyrrolidin-3-yl)-7H-pyrrolo[2,3-d]pyrimidine-6-carboxamide], the concentration for 50% growth inhibition (GI50) in the assay with UWB1.289 cells is < 100 nM. For the same compound, the ΔTm at 100 µM at recombinant USP1 protein is > 5 °C.

`COc1ncnc(C2CC2)c1-c1ncc2cc(C(=O)N[C@@H]3CCN(C)C3)n(Cc3ccc(-c4nc(C(F)(F)F)cn4C(C)C)cc3)c2n1` [Example 175, (R)-2-(4-cyclopropyl-6-methoxypyrimidin-5-yl)-7-(4-(1-isopropyl-4-(trifluoromethyl)-1H-imidazol-2-yl)benzyl)-N-(1-methylpyrrolidin-3-yl)-7H-pyrrolo[2,3-d]pyrimidine-6-carboxamide]: in the assay on UWB1.289 cells, the GI50 was < 100 nM. The ΔTm at 100 µM on recombinant USP1 protein was > 5 °C.

As for `COc1ncnc(C2CC2)c1-c1ncc2cc(C(=O)NC[C@@H](O)CO)n(Cc3ccc(-c4nc(C(F)(F)F)cn4C)cc3)c2n1` [Example 176, (R) -2-(4-cyclopropyl-6-methoxypyrimidin-5-yl)-N-(2,3-dihydroxypropy 1)-7-(4-(1-methyl-4-(trifluoromethyl)-1H-imidazol-2-yl)benzyl)-7H-pyrrolo[2,3-d]pyrimidine-6-carboxamide], the GI50 in the assay with UWB1.289 cells is 100 to 500 nM. In addition, the ΔTm at 100 µM on recombinant USP1 protein is > 5 °C.

(Values after patent EP4806898A1, “HETEROARYL DERIVATIVE COMPOUND AND USE THEREOF” (Voronoi Inc., priority 2023, dated 2025).)
